The values below come from PubChem BioAssay (NCI).

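How tested: cells in 96-well plates exposed to compound for 48 hours at five concentrations. TGI: total growth inhibition.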

Some test systems named below: MDA-MB-435; HCC-2998 colon; OVCAR-4 ovarian; MALME-3M melanoma; HL-60(TB) leukemia; HOP-62 NSCLC; CAKI-1 renal; MCF7 breast; MDA-N; UACC-62 melanoma; SNB-19 CNS; CCRF-CEM leukemia; SK-MEL-5 melanoma; ACHN renal; NCI/ADR-RES ovarian; HS 578T breast; SK-MEL-28 melanoma; MDA-MB-231 breast; BT-549 breast.
Experiment in all cases: NCI anticancer screen, dose series, 48 h

In the case of `O=C1CCCC1C(O)(C(F)(F)F)C(F)(F)F` (configuration not stated), the TGI with MDA-MB-435, in the experiment on HCC-2998 colon, in the experiment with OVCAR-4 ovarian, in the experiment with MALME-3M melanoma, in the experiment on HL-60(TB) leukemia and in the experiment with HOP-62 NSCLC was > 100 µM in each case. The TGI in the experiment with CAKI-1 renal, in the experiment on MCF7 breast, with MDA-N, in the experiment with UACC-62 melanoma, in the experiment with SNB-19 CNS and in the experiment with CCRF-CEM leukemia was > 100 µM each time. The TGI in the experiment on SK-MEL-5 melanoma, in the experiment on ACHN renal, with NCI/ADR-RES ovarian, in the experiment with HS 578T breast, in the experiment with SK-MEL-28 melanoma and in the experiment with MDA-MB-231 breast was > 100 µM each time.

Consider `Oc1cc(-c2ccc(Cl)cc2)cn2c1nc1ccccc12`, for which the TGI with MDA-MB-435, in the experiment on OVCAR-4 ovarian, in the experiment on MALME-3M melanoma, with HL-60(TB) leukemia, in the experiment with HOP-62 NSCLC and with CAKI-1 renal was > 100 µM each time. In addition, the TGI with MCF7 breast, in the experiment with MDA-N, with UACC-62 melanoma, in the experiment on SNB-19 CNS, in the experiment with NCI/ADR-RES ovarian and in the experiment on HS 578T breast was > 100 µM throughout. The TGI in the experiment on SK-MEL-28 melanoma and in the experiment on MDA-MB-231 breast was > 100 µM in each case.

For the molecule `CN(N)/N=N/c1nc[nH]c1[N+](=O)[O-]`, the TGI is > 100 µM with BT-549 breast; > 100 µM with MDA-MB-435; > 100 µM in the experiment with HCC-2998 colon; > 100 µM with OVCAR-4 ovarian; > 100 µM in the experiment with MALME-3M melanoma; 12.2 µM in the experiment with HL-60(TB) leukemia. The TGI in the experiment with HOP-62 NSCLC was > 100 µM; with CAKI-1 renal, 40.9 µM; in the experiment with MDA-N, > 100 µM; with UACC-62 melanoma, > 100 µM; in the experiment on CCRF-CEM leukemia it was 33 µM; in the experiment with SK-MEL-5 melanoma it was > 100 µM. The TGI is > 100 µM in the experiment with ACHN renal; > 100 µM with NCI/ADR-RES ovarian; > 100 µM with HS 578T breast; > 100 µM in the experiment with SK-MEL-28 melanoma; 60.9 µM with MDA-MB-231 breast.

In the case of `C=CCc1ccccc1CC1(OCC)OC(=O)c2ccccc21` (configuration not stated), the TGI is > 100 µM with BT-549 breast; 96.9 µM with MDA-MB-435; > 100 µM with HCC-2998 colon; > 100 µM with OVCAR-4 ovarian; > 100 µM in the experiment with HOP-62 NSCLC; > 100 µM in the experiment on CAKI-1 renal. The TGI is > 100 µM in the experiment on MCF7 breast; 71.8 µM in the experiment with MDA-N; > 100 µM in the experiment on UACC-62 melanoma; > 100 µM in the experiment with SNB-19 CNS; > 100 µM with SK-MEL-5 melanoma; > 100 µM with ACHN renal. The TGI in the experiment on HS 578T breast, in the experiment with SK-MEL-28 melanoma and with MDA-MB-231 breast was > 100 µM each time.

Consider `Cc1ccc(N2CCC3(CC2)OCCO3)cc1`, for which the TGI in the experiment with BT-549 breast, with MDA-MB-435, in the experiment with HCC-2998 colon, in the experiment with OVCAR-4 ovarian, with MALME-3M melanoma and with HL-60(TB) leukemia was > 100 µM each time. The TGI in the experiment on HOP-62 NSCLC, in the experiment with CAKI-1 renal, with MDA-N, with UACC-62 melanoma, in the experiment with SNB-19 CNS and in the experiment with CCRF-CEM leukemia was > 100 µM each time. Moreover, the TGI with SK-MEL-5 melanoma, with ACHN renal, with NCI/ADR-RES ovarian, in the experiment with HS 578T breast, in the experiment with SK-MEL-28 melanoma and in the experiment on MDA-MB-231 breast was > 100 µM each time.

Regarding `NC(=O)C1Cc2cc3c(cc21)OCO3` (configuration not stated), the TGI with BT-549 breast, in the experiment on HCC-2998 colon, in the experiment with MALME-3M melanoma, with HOP-62 NSCLC, with CAKI-1 renal and with MCF7 breast was > 100 µM in each case. Further, the TGI in the experiment with MDA-N, in the experiment with UACC-62 melanoma, in the experiment with SNB-19 CNS, with SK-MEL-5 melanoma, in the experiment with ACHN renal and with NCI/ADR-RES ovarian was > 100 µM throughout. Besides, the TGI with HS 578T breast and in the experiment on MDA-MB-231 breast was > 100 µM throughout.

On to `COC(=O)C1(C(=O)OC)Cc2ccc(C)cc2C2=C1C(=O)c1ccccc1C2=O`, for which the TGI in the experiment on MDA-MB-435 is 31.4 µM; with OVCAR-4 ovarian, 23.7 µM; in the experiment with MALME-3M melanoma, 87.5 µM; in the experiment with HL-60(TB) leukemia, > 100 µM; with HOP-62 NSCLC, 29 µM; with MCF7 breast, 35.7 µM. Moreover, the TGI in the experiment with MDA-N is 32 µM; in the experiment on UACC-62 melanoma it was 35.8 µM; in the experiment with SNB-19 CNS, > 100 µM; in the experiment on CCRF-CEM leukemia, 49.4 µM; in the experiment on SK-MEL-5 melanoma, 28.6 µM; in the experiment with ACHN renal it was 31.7 µM. Further, the TGI is 80.1 µM with NCI/ADR-RES ovarian, > 100 µM in the experiment with HS 578T breast, 32.5 µM with SK-MEL-28 melanoma and 33 µM in the experiment on MDA-MB-231 breast.
